Assay [1] concerns Human immunodeficiency virus 1. In words: Antiviral activity against HIV1 NL4-3. To be noted: Human immunodeficiency virus 1, NL4-3. It is filed as functional, organism-based.
For the next assay, the system named is PBMC. Kind of assay: Cytotoxicity against human PBMC. It is filed as functional.
The subject of assay [2] is Human immunodeficiency virus 1. In words: Antiviral activity against HIV1 TEKI. The following applies: Human immunodeficiency virus 1, TEKI. It is filed as functional, organism-based.

pIC50: −log10 of the molar value.

For `Nc1ncnc2c1ncn2[C@H]1CN[C@@H](CO)C1`, the pIC50 (commonly −log10 of the IC50, conventionally taken in molar units) in assay [1] is 5.51; in assay [2] it was 5.45. Also, the midpoint of cytotoxicity in the assay with PBMC, the CC50, lay at 46.6 µM.

`Cc1cn([C@H]2C[C@H](N=[N+]=[N-])[C@@H](CO)O2)c(=O)[nH]c1=O` [ZIDOVUDINE]: the CC50 (in general, the concentration giving 50% cytotoxicity) with PBMC is more than 1 µM.

These data come from ChEMBL document CHEMBL1146190, “Azadideoxyadenosine: synthesis, enzymology, and anti-HIV activity” (Bioorg Med Chem Lett, 2006).
